Reference: PubChem BioAssay (NCI)
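Compound exposure: 48 hours, 5 concentrations, 96-well plates. Here, GI50 denotes the concentration required for 50% inhibition of growth. TGI is the concentration that stops growth completely.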

How the values were obtained:
Assay in all cases: NCI anticancer screen, dose series, 48 h
[1] = tested on: MDA-MB-435
[2] = tested on: RXF 393 renal
[3] = tested on: IGROV1 ovarian
[4] = tested on: U251 CNS
[5] = tested on: PC-3 prostate
[6] = tested on: HS 578T breast
[7] = tested on: NCI-H522 lung
[8] = tested on: BT-549 breast
[9] = tested on: LOX IMVI melanoma
[10] = tested on: TK-10 renal

Row | Compound | GI50 [1] | TGI [1] | GI50 [2] | TGI [2] | GI50 [3] | TGI [3] | GI50 [4] | TGI [4] | GI50 [5] | TGI [5] | GI50 [6] | TGI [6] | GI50 [7] | TGI [7] | GI50 [8] | TGI [8] | GI50 [9] | TGI [9] | GI50 [10] | TGI [10]
1 | Cc1c(C(=O)O[C@H]2[C@@H]3[C@H](C)CC[C@H]3[C@]3(C)O[C@@]2(C2CCCCC2)C[C@H]3OC(=O)CO)ccc2ccccc12 | 8.15 µM | 15.4 µM | 0.164 µM | 7.12 µM | 8.39 µM | 17.3 µM | 7.43 µM | 13.9 µM | 6.96 µM | 15.6 µM | 0.0165 µM | 0.142 µM | 7.11 µM | 13.8 µM | 5.28 µM | 12.7 µM | 7.45 µM | 14.2 µM | 8.12 µM | 15.4 µM
2 | O=C(CCl)Nc1cc(O)c2c(c1)C(=O)c1cccc(O)c1C2=O | 1.95 µM | 4.72 µM | 1.72 µM | 3.5 µM | 0.942 µM | 3.13 µM | 1.63 µM | 3.18 µM | 1.57 µM | 3.95 µM | 2.46 µM | 10.6 µM | 0.172 µM | 0.384 µM | 1.24 µM | 3.3 µM | 0.166 µM | 0.623 µM | 1.97 µM | 3.39 µM
3 | Cc1cc(S(=O)(=O)Nc2nc3cc(Cl)ccc3o2)c(SCc2ccccc2)cc1Cl | 21.5 µM | 42 µM | 30.9 µM | 58.5 µM | 19.8 µM | 44.3 µM | 19.2 µM | 37.1 µM | 21.5 µM | 43.5 µM | 21 µM | 44.3 µM | 17.4 µM | 40.1 µM | 19.3 µM | 38.7 µM | 21.4 µM | 48.9 µM | 25.8 µM | 55.1 µM
4 | CCOc1cc(C(C)(C)C)ccc1C1=N[C@@](C)(c2ccc(Cl)cc2)[C@@](C)(c2ccc(Cl)cc2)N1C(=O)N1CCN(CCS(C)(=O)=O)CC1 | 3.47 µM | 11.7 µM | 1.76 µM | 3.74 µM | 1.49 µM | 6.54 µM | 2.89 µM | 8.52 µM | 2.01 µM | 6.25 µM | 4.1 µM | 23.9 µM | 2.98 µM | 10.2 µM | 3.24 µM | 10 µM | 1.17 µM | 3.6 µM | 3.12 µM | 10.3 µM
5 | COc1cc([C@@H]2c3cc4c(cc3C(OC3O[C@@H]5COC(C)O[C@H]5[C@H](O)[C@H]3O)C3COC(=O)[C@@H]32)OCO4)cc(OC)c1O (stereo not given in full) | 3.89 µM | > 50 µM | 0.982 µM | 8.31 µM | 2.95 µM | > 50 µM | 0.667 µM | 14.9 µM | 5.59 µM | > 50 µM | 1.97 µM | > 31.8 µM | 0.65 µM | 4.91 µM | 1.66 µM | > 29.2 µM | 0.444 µM | 13.7 µM | 3.56 µM | 15.4 µM
6 | CN(C)CCNc1nc2ccccc2c2c(=O)c3ccccc3sc12 | 1.83 µM | 3.42 µM | 1.51 µM | 4.11 µM | 1.81 µM | 4.53 µM | 2.25 µM | 6.01 µM | 1.84 µM | 4.13 µM | 2.89 µM | 11.7 µM | 1.7 µM | 3.41 µM | 1.88 µM | 3.67 µM | 1.37 µM | 2.8 µM | 2.52 µM | 6.15 µM
